Assay results published in ChEMBL document CHEMBL3792277, “Structurally Diverse Mitochondrial Branched Chain Aminotransferase (BCATm) Leads with Varying Binding Modes Identified by Fragment Screening” (J Med Chem, 2016).
≈ marks a conversion by molar mass, not a printed value.

What was measured:
[1] = biological target: T1, Branched-chain-amino-acid aminotransferase, mitochondrial (Homo sapiens, UniProt O15382); assay: Inhibition of human BCATm incubated for 10 mins by Amplex red- based fluorescence analysis
T1 sequence (O15382 whole entry): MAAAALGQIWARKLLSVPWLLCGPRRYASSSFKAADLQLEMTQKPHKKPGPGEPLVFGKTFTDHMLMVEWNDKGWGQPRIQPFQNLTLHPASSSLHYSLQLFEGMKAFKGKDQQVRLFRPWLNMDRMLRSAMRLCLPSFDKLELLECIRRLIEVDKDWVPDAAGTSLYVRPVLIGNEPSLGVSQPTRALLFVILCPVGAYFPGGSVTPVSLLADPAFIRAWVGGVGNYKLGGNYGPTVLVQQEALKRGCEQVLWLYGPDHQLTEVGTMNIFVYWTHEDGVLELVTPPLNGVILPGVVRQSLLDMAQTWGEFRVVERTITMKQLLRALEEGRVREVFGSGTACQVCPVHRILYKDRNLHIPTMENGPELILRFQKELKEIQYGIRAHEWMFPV

[2] = Solubility of compound in PBS at pH 7.4 after 1 hr by chemiluminiscent nitrogen detection method; assay type: physicochemical

Row | Structure (SMILES) | IC50 [1] [µM] | solubility at 1 h [2] [µg/mL]
1 | CCOC(=O)Cc1ccccc1NC(=O)c1sc2nc[nH]c(=O)c2c1C | > 63.1 | –
2 | CC1CNc2c(cccc2S(N)(=O)=O)C1 (configuration not stated) | > 1260 | –
3 | O=C(O)Cc1noc2ccccc12 | > 1260 | –
4 | O=C(O)Cc1ccccc1C(=O)Nc1ccccc1 | 316 | –
5 | O=C(CO)NC1CCCc2ccccc21 (configuration not stated) | > 1260 | –
6 | Cc1c(C(=O)Nc2ccon2)sc2nc[nH]c(=O)c12 | > 63.1 | –
7 | OCc1ccc2nsnc2c1 | > 1260 | –
8 | Cc1ccc(NC(=O)c2sc3nc[nH]c(=O)c3c2C)cc1 | > 63.1 | –
9 | O=C(Nc1ccccc1)c1ccccc1 [N-PHENYLBENZAMIDE] | > 631 | –
10 | Cc1c(C(=O)Nc2ccccc2S(C)(=O)=O)sc2nc[nH]c(=O)c12 | > 63.1 | –
11 | NC(=O)NCC(O)c1ccccc1 (configuration not stated) | 794 | –
12 | Cc1c(C(=O)NC2CCCC2)sc2ncn(C)c(=O)c12 | > 63.1 | –
13 | O=C(Nc1cncnc1)c1ccccc1 | 1000 | –
14 | Cc1cccc(NC(=O)c2sc3nc[nH]c(=O)c3c2C)c1 | > 63.1 | –
15 | Cc1c(C(=O)N2CCCCC2)sc2ncn(C)c(=O)c12 | > 631 | –

The next lines start with the values.

Row | IC50 [1] [µM] | solubility at 1 h [2] [µg/mL] | Structure (SMILES)
16 | 7.94 | – | CC(C)C(Sc1ncnc2ccccc12)C(=O)O (configuration not stated)
17 | 126 | – | Nc1ccc(Oc2ccccc2)nn1
18 | 15.8 | 132 (≈ 496 µM) | NC(=O)c1ccc(N2CCc3ccccc3C2=O)cc1
19 | 50.1 | 13 (≈ 54.1 µM) | NC(=O)c1ccc(NC(=O)c2ccccc2)cc1
20 | 158 | – | NC(=O)c1sccc1-c1ccccc1
21 | 1.58 | 94 (≈ 325 µM) | O=C1c2ccccc2CCN1c1ccc(-c2cc[nH]n2)cc1
22 | 5.01 | 12 (≈ 45.6 µM) | O=C(Nc1ccc(-c2cc[nH]n2)cc1)c1ccccc1
23 | 7.94 | – | Cc1c(C(=O)Nc2ccccc2)sc2ncn(C)c(=O)c12
24 | 63.1 | – | Cc1c(C(=O)O)sc2ncn(C)c(=O)c12
25 | 2 | – | O=C(O)Cc1ccccc1C(=O)Nc1ccc(-c2cc[nH]n2)cc1
26 | 0.251 | – | Cc1cc2cc(C)c(SCC(=O)O)nc2cc1C
27 | 2.51 | – | NC(=O)c1ccc(NC(=O)c2ccc(Cl)c(Cl)c2)cc1
28 | 200 | – | CS(=O)(=O)c1ccccc1C(=O)Nc1ccccc1
29 | 50.1 | – | Cc1ccccc1NC(=O)c1sc2ncnc(O)c2c1C
30 | 3.16 | 82 (≈ 309 µM) | O=C(Nc1cnc(-c2cc[nH]n2)nc1)c1ccccc1
31 | 158 | – | NC(=O)c1ccccc1-c1ccccc1
32 | 7.94 | – | Cc1c(C(=O)Nc2ccccc2)sc2ncnc(O)c12
